Data: patent publication US20260042755A1, “GPR6 INVERSE AGONISTS” (MapLight Therapeutics, Inc., priority 2022, published 2026)

Assays:
[1] = biological target: T1, GPR6 (Homo sapiens, UniProt P46095); test: GPR6 antagonist functional cAMP assay (LANCE Ultra cAMP TR-FRET, CHO cells stably expressing GPR6); format: cell-based
T1 construct: expressed in transfected cells; host or cells: CHO cells
Outline: (§1)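 Read-out was TR-FRET cAMP signal at 665 nm after 1 h at room temperature, following 45 min compound exposure at 37 °C. Assay buffer contained 0.1% BSA and 150 μM Ro 20-1724. Antagonist IC50s were fitted with a 4-parameter logistic against DMSO and reference controls.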

[2] = biological target: T2, GPR3 (Homo sapiens, UniProt P46089); test: GPR3 antagonist functional cAMP assay (LANCE Ultra cAMP TR-FRET, CHO cells stably expressing GPR3); format: cell-based
T2 construct: expressed in transfected cells; host or cells: CHO cells
T2 sequence (P46089 whole entry, species assumed): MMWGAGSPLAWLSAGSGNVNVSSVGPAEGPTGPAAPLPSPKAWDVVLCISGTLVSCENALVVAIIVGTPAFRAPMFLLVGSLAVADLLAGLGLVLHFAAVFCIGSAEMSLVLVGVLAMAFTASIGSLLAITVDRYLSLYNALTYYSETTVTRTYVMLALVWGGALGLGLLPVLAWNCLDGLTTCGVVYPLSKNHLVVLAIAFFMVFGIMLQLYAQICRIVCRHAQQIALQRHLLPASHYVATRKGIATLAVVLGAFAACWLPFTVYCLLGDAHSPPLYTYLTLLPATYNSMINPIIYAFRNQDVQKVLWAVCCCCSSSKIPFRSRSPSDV
Outline: as §1

[3] = CHO cells stably expressing GPR6, cAMP assay
[4] = CHO cells stably expressing GPR3, cAMP assay
[5] = procedure as described in Example 24
[6] = CHO cells stably expressing GPR6, cAMP assay (Example 24)
[7] = CHO cells stably expressing GPR3, cAMP assay (Example 24)

T1 sequence (P46095 whole entry): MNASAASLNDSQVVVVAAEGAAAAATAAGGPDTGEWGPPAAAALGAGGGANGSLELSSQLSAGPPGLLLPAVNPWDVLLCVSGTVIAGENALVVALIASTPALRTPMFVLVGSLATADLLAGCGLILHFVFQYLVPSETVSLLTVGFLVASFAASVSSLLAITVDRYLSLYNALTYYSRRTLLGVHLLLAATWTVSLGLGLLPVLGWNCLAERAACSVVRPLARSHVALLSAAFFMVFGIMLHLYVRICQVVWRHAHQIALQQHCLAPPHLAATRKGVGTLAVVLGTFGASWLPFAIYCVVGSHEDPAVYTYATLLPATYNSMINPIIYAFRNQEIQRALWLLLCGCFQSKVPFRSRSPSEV

Row | IC50 [1, 6] [nM] | IC50 [2, 7] [nM] | IC50 ([1]; procedure of Example 24) [nM] | IC50 ([2]; procedure of Example 24) [nM] | also measured | Structure (SMILES)
1 | – | – | – | – | IC50 [1, 3]: 100 to 1000 nM; IC50 [2, 4]: 1000 to 30000 nM | CCn1cc(-c2nc3cnc([C@@H](O)C(C)(C)O)cc3nc2N2CCN(Cc3ccc(F)cc3F)CC2)cn1 (single isomer, unassigned) [Compound 574]
2 | – | – | – | – | IC50 [1, 5]: 100 to 1000 nM; IC50 [2, 5]: 100 to 1000 nM | Fc1ccc(OC2CCN(c3nc4ccncc4nc3-c3cn[nH]c3)CC2)c(F)c1 [Compound 9, 4-(2,4-difluorophenoxy)-1-[3-(1H-pyrazol-4-yl)pyrido[3,4-b]pyrazin-2-yl]piperidine]
3 | 1000 to 30000 | 1000 to 30000 | – | – | – | CC(=O)N1CCc2nc(N3CCC(Oc4ccc(F)cc4F)CC3)c(C3CCNCC3)nc2C1 [Compound 265, 1-{2-[4-(2,4-difluorophenoxy)piperidin-1-yl]-3-(piperidin-4-yl)-5H,6H,7H,8H-pyrido[3,4-b]pyrazin-6-yl}ethan-1-one]
4 | 1000 to 30000 | 1000 to 30000 | – | – | – | COCCN1CCc2nc(N3CCC(Oc4ccc(F)cc4F)CC3)c(-c3cnn(C4CCCCO4)c3)nc2C1 (stereo not shown) [Compound 142, 4-(2,4-difluorophenoxy)-1-[6-(2-methoxyethyl)-3-[1-(oxan-2-yl)-1H-pyrazol-4-yl]-5H,6H,7H,8H-pyrido[3,4-b]pyrazin-2-yl]piperidine]
5 | – | – | < 100 | 1000 to 30000 | – | COC(=O)N1CCc2nc(N3CCC(Oc4ccc(F)cc4F)CC3)c(-c3ccc(F)c(N)n3)nc2C1 [Compound 611, 6-{2-[4-(2,4-difluorophenoxy)-1-piperidyl]-6-methoxycarbonyl-5,6,7,8-tetrahydro-1,4,6-triaza-3-naphthyl}-3-fluoro-2-pyridylamine]
6 | 1000 to 30000 | 1000 to 30000 | – | – | – | CC(=O)N1CCc2nc(N3CCC(Oc4ccc(F)cc4F)CC3)c(C3CCOCC3)nc2C1 [Compound 236, 1-{2-[4-(2,4-difluorophenoxy)piperidin-1-yl]-3-(oxan-4-yl)-5H,6H,7H,8H-pyrido[3,4-b]pyrazin-6-yl}ethan-1-one]
7 | – | – | < 100 | 1000 to 30000 | – | CC(C)(O)C(C)(O)c1cc2nc(-c3cnn(C(F)F)c3)c(N3CCN(Cc4ccc(F)cc4F)CC3)nc2cn1 (stereo not shown) [Compound 633, 2-{2-[1-(difluoromethyl)-4-pyrazolyl]-3-{4-[(2,4-difluorophenyl)methyl]-1-piperazinyl}-1,4,6-triaza-7-naphthyl}-3-methyl-2,3-butanediol]
8 | – | – | – | – | IC50 [1, 5]: 100 to 1000 nM; IC50 [2, 5]: 1000 to 30000 nM | CC(=O)N1CCc2nc(N3CCC(Oc4ccc(F)cc4F)CC3)c(-c3cccc(C#N)n3)nc2C1 [Compound 2, 6-{6-acetyl-2-[4-(2,4-difluorophenoxy)piperidin-1-yl]-5H,6H,7H,8H-pyrido[3,4-b]pyrazin-3-yl}pyridine-2-carbonitrile]
9 | – | – | < 100 | 1000 to 30000 | – | CCn1cc(-c2nc3cnccc3nc2N2CCC(Oc3cc(Cl)ccc3F)CC2)cn1 [Compound 295, 4-(5-chloro-2-fluorophenoxy)-1-[3-(1-ethyl-1H-pyrazol-4-yl)pyrido[3,4-b]pyrazin-2-yl]piperidine]
10 | 1000 to 30000 | 1000 to 30000 | – | – | – | COCC1CN(c2nc3ccncc3nc2-c2cn[nH]c2)CCN1Cc1ccc(F)cc1F (single isomer, unassigned) [Compound 89, 2-(4-(2,4-difluorobenzyl)-3-(methoxymethyl)piperazin-1-yl)-3-(1H-pyrazol-4-yl)pyrido[3,4-b]pyrazine]
11 | 100 to 1000 | 1000 to 30000 | – | – | – | COCC(O)c1cc2nc(N3CCC(Oc4ccc(F)cc4F)CC3)c(-c3cnn(C)c3)nc2cn1 (stereo not shown) [Compound 437, 1-(2-(4-(2,4-difluorophenoxy)piperidin-1-yl)-3-(1-methyl-1H-pyrazol-4-yl)pyrido[3,4-b]pyrazin-7-yl)-2-methoxyethan-1-ol]
12 | – | – | – | – | IC50 [1, 3]: 1000 to 30000 nM; IC50 [2, 4]: ≥ 30000 nM | CC(=O)N1CCc2nc(N3CCN(Cc4cscn4)CC3)c(-c3cnn(C)c3)nc2C1 [Compound 516, 1-[3-(1-methyl-4-pyrazolyl)-2-{4-[(1,3-thiazol-4-yl)methyl]-1-piperazinyl}-5,6,7,8-tetrahydro-1,4,6-triaza-6-naphthyl]-1-ethanone]
13 | – | – | – | – | IC50 [1, 3]: 100 to 1000 nM; IC50 [2, 4]: 1000 to 30000 nM | Cn1cc(-c2nc3cc(C(=O)C(C)(C)O)ncc3nc2N2CCN(Cc3ccc(F)cc3F)CC2)cn1 [Compound 563, 1-(3-{4-[(2,4-difluorophenyl)methyl]-1-piperazinyl}-2-(1-methyl-4-pyrazolyl)-1,4,6-triaza-7-naphthyl)-2-hydroxy-2-methyl-1-propanone]
14 | – | – | 100 to 1000 | 1000 to 30000 | – | CC(C)(O)C(O)c1cc2nc(-c3cnn(C(F)F)c3)c(N3CCC(=Cc4ccc(F)cc4F)CC3)nc2cn1 (single isomer, unassigned) [Compound 767]
15 | – | – | 1000 to 30000 | 1000 to 30000 | – | CCn1cc(-c2nc3cnc(NC(C)=O)cc3nc2N2CCC(Oc3ccc(F)cc3F)CC2)cn1 [Compound 367, N-{2-[4-(2,4-difluorophenoxy)piperidin-1-yl]-3-(1-ethyl-1H-pyrazol-4-yl)pyrido[3,4-b]pyrazin-7-yl}acetamide]
16 | – | – | – | – | IC50 [1, 3]: ≥ 30000 nM; IC50 [2, 4]: ≥ 30000 nM | CC(=O)N1CCc2nc(N3CCN(Cc4ccc(=O)[nH]c4)CC3)c(-c3cnn(C)c3)nc2C1 [Compound 532, 5-({4-[6-acetyl-3-(1-methyl-4-pyrazolyl)-5,6,7,8-tetrahydro-1,4,6-triaza-2-naphthyl]-1-piperazinyl}methyl)-2(1H)-pyridinone]
17 | – | – | 100 to 1000 | 100 to 1000 | – | COC[C@@](C)(O)c1cc2nc(-c3cnn(C)c3)c(N3CCC(Oc4ccc(F)cc4F)CC3)nc2cn1 (single isomer, unassigned) [Compound 688]
18 | – | – | – | – | IC50 [1, 5]: 100 to 1000 nM; IC50 [2, 5]: 1000 to 30000 nM | COc1ccc(-c2nc3c(nc2N2CCC(Oc4ccc(F)cc4F)CC2)CCN(C(C)=O)C3)nc1 [Compound 10]
19 | ≥ 30000 | 1000 to 30000 | – | – | – | CC(=O)N1CCc2nc(N3CCC(C(=O)N(C)c4ccc(F)cc4F)C3)c(-c3cnn(C)c3)nc2C1 (stereo not shown) [Compound 392, 1-[6-acetyl-3-(1-methyl-1H-pyrazol-4-yl)-5H,6H,7H,8H-pyrido[3,4-b]pyrazin-2-yl]-N-(2,4-difluorophenyl)-N-methylpyrrolidine-3-carboxamide]
20 | – | – | 100 to 1000 | 1000 to 30000 | – | CCn1cc(-c2nc3cnc(C(C)(O)C(C)(C)O)cc3nc2N2CCN(Cc3ccc(F)cc3F)CC2)cn1 (stereo not shown) [Compound 654, 2-(2-{4-[(2,4-difluorophenyl)methyl]-1-piperazinyl}-3-(1-ethyl-4-pyrazolyl)-1,4,6-triaza-7-naphthyl)-3-methyl-2,3-butanediol]
21 | – | – | – | – | IC50 [1, 3]: 1000 to 30000 nM; IC50 [2, 4]: 1000 to 30000 nM | COC1CCC(c2nc3c(nc2N2CCC(Oc4ccc(F)cc4F)CC2)CCN(C(=O)CO)C3)CC1 (stereo not shown) [Compound 520, 1-{2-[4-(2,4-difluorophenoxy)-1-piperidyl]-3-(4-methoxycyclohexyl)-5,6,7,8-tetrahydro-1,4,6-triaza-6-naphthyl}-2-hydroxy-1-ethanone]
22 | 1000 to 30000 | 1000 to 30000 | – | – | – | CNC(=O)C(C)N1CCc2nc(N3CCC(Oc4ccc(F)cc4F)CC3)c(-c3cnn(C4CCCCO4)c3)nc2C1 (stereo not shown) [Compound 146, 2-{2-[4-(2,4-difluorophenoxy)piperidin-1-yl]-3-[1-(oxan-2-yl)-1H-pyrazol-4-yl]-5H,6H,7H,8H-pyrido[3,4-b]pyrazin-6-yl}-N-methylpropanamide]
23 | 100 to 1000 | 1000 to 30000 | – | – | – | CC(C)(O)C(=O)N1CCc2nc(N3CCC(Oc4ccc(F)cc4F)CC3)c(-c3cn[nH]c3)nc2C1 [Compound 175, 1-{2-[4-(2,4-difluorophenoxy)piperidin-1-yl]-3-(1H-pyrazol-4-yl)-5H,6H,7H,8H-pyrido[3,4-b]pyrazin-6-yl}-2-hydroxy-2-methylpropan-1-one]
